For one experiment, the system named is HT-29 cells. As to the kind of experiment: TSZ-induced necroptosis in HT-29 cells (CCK8 viability, PI/Hoechst, H&E staining). The experiment is classed as cell-based, human. As to conditions: Figure 7k, TSZ-treated cells. The procedure:
Necroptosis was induced by pretreatment with TNF‐α (20 ng·mL^−1) plus z‐VAD‐fmk (20 μM) and Smac mimetic (BV6, 2 μM) for 8 h, then stained cells with hematoxylin/eosin. For PI/Hoechst staining, cells were stained with PI and Hoechst for 20 min, then photographed with a fluorescence microscope and at least 300 cells were counted. The ratio of PI positive cells (%) = (PI positive cells) / (Hoechst positive cells) × 100%. For cell viability assay, CCK8 was added to the well and incubated for 1 − 2 h and then OD450 was measured using a multi-mode microplate reader (Cytation5, BioTek).

For the next experiment, the system named is mucosal barrier function. Description: Intestinal permeability, serum FITC-dextran in DSS-treated mice. The format is in vivo, mouse. The procedure: The mice treated with DSS for 7 days were fasted for 6 h, given FITC-dextran (3-5 kDa, FD4, sigma) intragastrically at a dose of 60 mg kg^−1. After 3 h, hemolysis-free sera were collected and the fluorescence intensity of serum was read by a multi-mode microplate reader (excitation, 488 nm; emission, 520 nm).

For experiment [1], the system named is DSS-induced colitis in mice. Description: DSS-induced acute colitis in WT mice, P2Y14R antagonist treatment (body weight, DAI, colon length, H&E, tight junction staining, TEM). The experiment is classed as in vivo, mouse. Further details: DAI: scale not given here. The source says:
Male, 7-8-week-old, P2Y14R^fl/fl Vil-cre (P2Y14R^∆IEC), P2Y14R^fl/fl Lyz2-cre and WT mice with C57BL/6 J background were used to establish experimental (acute) colitis model. P2Y14R^fl/fl C57BL/6 J mice were used as control for P2Y14R^fl/fl Vil-cre (P2Y14R^∆IEC) and P2Y14R^fl/fl Lyz2-cre mice. WT C57BL/6 J mice were used for the pharmacological study of HDL-16. Colitis was induced by dextran sodium sulfate (DSS; 36-50 kDa; 3% w/v; MP Biomedicals, Solon, Ohio, USA), added to the drinking water ad libitum for 7 days. Control mice received standard drinking water. The Disease Activity Index (DAI) was evaluated daily as described previously. After 7 days of DSS treatment, mice were euthanized by carbon dioxide inhalation and the colons were measured and then processed for histological analyses, homogenized to extract protein or RNA.
The DSS group and the P2Y14R^△IEC + DSS group were rectally administered with 100 μl vehicle (saline with 0.1% DMSO). The low-dose group of mice was given 10 μM HDL-16, 100 μl per mouse, while the high-dose group was given 20 μM HDL-16, 100 μl per mouse.
For TEM, harvest fresh tissue blocks quickly within 1-3 minutes. […] Then tissues avoid light post fixed in 1% OsO4 in PBS for 2 h at room temperature. […] The samples were moved into a 65°C oven to polymerize for more than 48 h. Ultrathin sections were cut to 60-80 nm thin with an ultramicrotome UCT6 (Leica Microsystems, Vienna) and placed on 150 meshes cuprum grids (formvar carbon coated Cu grids) with formvar film. […] Micrographs were obtained with a Jeol JEM 1400 plus electron microscope (Jeol, USA) operating at 80 kV.
For histological assessment of colitis, colon specimens were fixed in 4% paraformaldehyde (PFA) and embedded in paraffin. Five-micrometer tissue sections were stained with H&E and examined for evidence of colitis as described previously. After the paraffin sections conventional dewaxing to water, put the sections into Hematoxylin solution for 3-5 min and treat the sections with Hematoxylin Differentiation solution. […] Finally, dehydrated the sections with gradient alcohol and xylene, and sealed with neutral gum. Images were captured with a microscope (BX53, Olympus).
Immunofluorescence staining was performed using paraffin-embedded tissues as mentioned before. For immunofluorescence, the paraffin slides were deparaffinized, rehydrated, blocked and treated according to a standard protocol. […] All slides were incubated with DAPI (S2110, Solarbio) for 10 min to show the location of the nucleus. Images were captured with a confocal microscope (LSM 800, Zeiss).

Experiment [2] concerns MLKL, PKA, CREB phosphorylation. Description: Immunoblotting of p-MLKL, p-PKA, p-CREB in colon tissues/IECs of DSS-treated mice. The format is in vivo, mouse. The procedure: The data represent the mean ± SD for c, e, and h–l, the data represent the mean ± SEM for b.
Colon tissues derived from the euthanized by carbon dioxide inhalation mice were opened longitudinally and washed in pre-cooling PBS for three times. Then, the tissues were cut into 3 mm^2 pieces and incubated with 5 mM EDTA solution in PBS on a constant temperature shaker at 200 rpm for 25 min at 37°C. Then, let it stand at room temperature for 30 seconds and collected the supernatant. Next, repeated the above process once. Supernatants from the above step were combined and centrifuged at 500 g for 8 min. Abandon the supernatants and obtain IECs.
Tissues and cells were lysed using RIPA lysis buffer (Beyotime Biotechnology) containing protease and phosphatase inhibitor, homogenated, and centrifuged. The protein concentration was determined by BCA protein assay (Beyotime Biotechnology). Equal concentrations of proteins were separated in a 10% SDS-PAGE and transferred to PVDF membrane. The membrane was blocked using 5% milk in TBST, probed with primary antibody, RIPK1 (17519-1-AP, Proteintech, 1:1000), MLKL (GTX107538-100, GeneTex, 1:1000), RIPK3 (17563-1-AP, Proteintech, 1:1000), p-MLKL (EPR9514, Abcam, 1:1000), PKA (bs-0520R, Bioss, 1:1000), p-PKA (#9621, Cell signaling, 1:1000), CREB (AF6188, Affinity, 1:1000), p-CREB (AF3189, Affinity, 1:1000), P2Y14R (bs-12028R, Bioss, 1:1000), GSDMD (ab209845, Abcam, 1:1000), Caspase1 p20 (bs-10442R, Bioss, 1:1000), Bcl-2 (bs-0032R, Bioss, 1:1000), Bax (AF0120, Affinity, 1:1000), Caspase-3 p-17 (Cell Signaling Technology, #9664, 1:1000), β-actin (bs-0061R, Bioss, 1:1000), GAPDH (BS-2188R, Bioss, 1:1000) and corresponding HRP-conjugated antibodies Goat Anti-Rabbit IgG H&L Antibody (bioss, Bs-0295G, 1:8000) or Goat Anti-Mouse IgG H&L Antibody (bioss, Bs-0296G, 1:8000). Densitometry was quantified using ImageJ software.

[3] abbreviates: P2Y14R△IEC mice + DSS + PPTN, individual mice, supplement Figure 4e.
Setting [4] is: high-dose, 20 μM, 100 μl per mouse.

The text below walks through data of publication PMC10920779, “Targeting P2Y14R protects against necroptosis of intestinal epithelial cells through PKA/CREB/RIPK1 axis in ulcerative colitis” (Nature Communications, 2024).

“And” between values parts separate entries of the source, which are not always exact repeats. Equal entries are not always repeated.

For the molecule `O=C(O)c1cc(-c2ccc(C3CCNCC3)cc2)c2ccc(-c3ccc(C(F)(F)F)cc3)cc2c1` [PPTN, reference compound], the “PI positive cell, PI intensity (%)” value in the experiment with HT-29 cells was 15.53% and 10.57% and 8.89%. Besides, the “CON(ug/ml), serum FITC-dextran” value in the experiment on mucosal barrier function (DSS-treated mice, Figure 7e) is 12.4177 µg/mL and 12.0055 µg/mL and 12.4453 µg/mL and 11.0788 µg/mL and 9.474 µg/mL and 9.103 µg/mL. In the experiment with mucosal barrier function (setting [3]), the CON was 6.506 µg/mL and 7.571 µg/mL and 6.5332 µg/mL and 6.645 µg/mL and 6.518 µg/mL and 7.625 µg/mL. Further, in the experiment on mucosal barrier function (setting [3]), the Serum fluorescence intensity is 5968551 and 6689623 and 5987216 and 6062672 and 5977001 and 6726135. In experiment [1] (DSS-treated mice, Day 1), this molecule came in with a DAI of 0. In addition, the “Weight (%)” value in experiment [1] (DSS-treated mice, Day 1) is 101.124% and 106.742% and 95.5056%; in experiment [1] (DSS-treated mice, Day 2), 101.124% and 106.742% and 95.5056%; in experiment [1] (DSS-treated mice, Day 3), 95.5056% and 106.742%; in experiment [1] (DSS-treated mice, Day 4) it was 89.8876% and 101.124% and 95.5056%; in experiment [1] (DSS-treated mice, Day 5) it was 89.8876% and 101.124% and 84.2697% and 95.5056%; in experiment [1] (DSS-treated mice, Day 6) it was 84.2697% and 95.5056% and 89.8876%. Further, the “Weight (%)” value in experiment [1] (DSS-treated mice, Day 7) is 89.8876% and 95.5056% and 84.2697%. Also, the “Colon length (cm)” value in experiment [1] (DSS-treated mice, Figure 7c) is 6.3 cm and 7.4 cm and 5.5 cm and 5.9 cm and 6.7 cm and 7.1 cm. Moreover, the Colitis symptoms entry in experiment [1] (daily treatment, 3% DSS mice) is “significantly suppressed colitis symptoms”. For the same molecule, the “H&E staining: inflammatory infiltration and tissue damage” value in experiment [1] (setting [4]) is “improved DSS-induced inflammatory infiltration and tissue damage”. The “Tight junction protein expression (immunofluorescence)” value in experiment [1] (setting [4]) was “stabilized the expression of tight junction protein Claudin-1, Occludin and ZO-1”. Also, the “Body weight loss and DAI vs DSS-exposed mice” value in experiment [1] (high-dose, 20 μM, 100 μl per mouse, rectal, daily, 3% DSS 7 days) is “dramatically less body weight loss and lower DAI”. In addition, in experiment [1] (high-dose, 20 μM, 100 μl per mouse, rectal, 3% DSS 7 days), the “Colon length vs mice treated with DSS only” value was “significantly longer”. In addition, the “Activation of cAMP/PKA/CREB pathway (p-PKA, p-CREB)” value in experiment [2] (DSS-induced colitis mice) was “significantly increased the level of p-PKA and p-CREB”. Further, the P-MLKL/MLKL in experiment [2] (DSS-treated mice, Figure 7h) was 1.3877 and 1.2109 and 1.586 and 1.421 and 1.9357; in experiment [2] (P2Y14R△IEC mice + DSS + PPTN, individual replicates), 1.205 and 1.2332 and 1.252 and 1.224 and 1.39. Further, the P-PKA/PKA in experiment [2] (DSS-treated mice, Figure 7h) was 2.217 and 1.679 and 2.34 and 2.232 and 2.623. Moreover, in experiment [2] (DSS-treated mice, Figure 7h), the p-CREB/CREB was 0.8109 and 1.08 and 1.258 and 1.076 and 0.8633. For the same molecule, the “Necroptosis of IECs (p-MLKL level and TEM imaging)” value in experiment [2] (high-dose, 20 μM, during DSS feeding) is “prominently suppression in necroptosis”.
